Values of other authors as cited in patent US20090012101A1, “Mucarinic Agonists and Methods of Use Thereof” (UNIVERSITY OF TOLEDO, priority 2005, published 2009).

Tests used:
M2 receptors = target: T1, M2 receptors (Homo sapiens, UniProt P08172)
T1 sequence (P08172 1-466): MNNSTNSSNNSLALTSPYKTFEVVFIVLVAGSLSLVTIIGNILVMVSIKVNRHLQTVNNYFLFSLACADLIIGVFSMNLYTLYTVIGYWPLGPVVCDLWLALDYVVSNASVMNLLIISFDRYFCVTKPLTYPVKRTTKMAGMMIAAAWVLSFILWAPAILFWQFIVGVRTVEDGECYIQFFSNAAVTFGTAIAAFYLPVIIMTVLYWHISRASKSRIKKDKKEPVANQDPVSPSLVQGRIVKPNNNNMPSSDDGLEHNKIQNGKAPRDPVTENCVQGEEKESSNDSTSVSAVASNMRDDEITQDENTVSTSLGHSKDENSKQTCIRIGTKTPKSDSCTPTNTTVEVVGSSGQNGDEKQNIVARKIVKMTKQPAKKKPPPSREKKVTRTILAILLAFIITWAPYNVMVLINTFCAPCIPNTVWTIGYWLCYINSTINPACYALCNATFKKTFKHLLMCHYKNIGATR

M4 receptors = target: T2, M4 receptors (Homo sapiens, UniProt P08173)
T2 sequence (P08173 1-479): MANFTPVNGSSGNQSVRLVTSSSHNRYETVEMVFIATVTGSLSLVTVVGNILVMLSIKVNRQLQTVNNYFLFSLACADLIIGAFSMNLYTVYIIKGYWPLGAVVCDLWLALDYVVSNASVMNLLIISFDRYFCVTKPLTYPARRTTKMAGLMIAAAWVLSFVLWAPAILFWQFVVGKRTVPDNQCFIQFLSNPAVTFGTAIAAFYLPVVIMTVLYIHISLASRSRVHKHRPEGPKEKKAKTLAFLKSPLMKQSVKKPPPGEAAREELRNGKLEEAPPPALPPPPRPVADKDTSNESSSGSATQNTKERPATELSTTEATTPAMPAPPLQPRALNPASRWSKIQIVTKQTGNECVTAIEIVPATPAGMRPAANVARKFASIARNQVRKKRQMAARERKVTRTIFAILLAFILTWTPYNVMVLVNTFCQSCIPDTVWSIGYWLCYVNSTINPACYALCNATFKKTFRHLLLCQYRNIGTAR

[1] = preclinical studies

In the case of `CCCCSc1nsnc1[C@H]1CN2CCC[C@H]1C2` [BuTAC, (5R,6R)-6-(3-butylthio-1,2,5-thiadiazol-4-yl)-1-azabicyclo[3.2.1]octane], the “agonist activity at M2 receptors” value (M2 receptors) is listed as “partial agonist activity”, the “agonist activity at M4 receptors” value (M4 receptors) is listed as “partial agonist activity” and the antipsychotic activity [1] is listed as “strong antipsychotic activity”.

For `CCCCCCOc1nsnc1C1=CCCN(C)C1` [xanomeline], the “unwanted side effects associated with activation of M3 receptors” value is listed as “salivation, diarrhea and profuse sweating” and the “effect on psychiatric symptoms such as hallucinations” value (phase II clinical trials, Alzheimer's patients) is listed as “significantly improved psychiatric symptoms”.
